One assay deals with MT4. The assay can be described thus: Compound was tested for antiviral activity against HIV-IIIB in MT-4 cells in presence of 50% human serum. The class given is functional, cell-based.
In assay [1] the target is Human immunodeficiency virus type 1 protease (Human immunodeficiency virus 1) (UniProt Q72874). The assay is described as follows: Inhibition of HIV protease at 0.5 nM.

`Cc1cc(F)cc(C)c1OCC(=O)N[C@H](Cc1ccccc1)[C@H](O)C[C@@H](Cc1ccccc1)NC(=O)[C@@H](C(C)C)N1CCCNC1=O`: the EC50 – broadly, the concentration that produces a half-maximal response – in the assay with MT4 amounted to 490 nM. The inhibition (as a rule, how much of the control response was suppressed) in assay [1] was 90%.
Consider `Cc1cccc(C)c1CCC(=O)N[C@H](Cc1ccccc1)[C@H](O)C[C@@H](Cc1ccccc1)NC(=O)[C@@H](C(C)C)N1CCCNC1=O`, for which the EC50 in the assay on MT4 is 2600 nM. The molecule further gave an inhibition in assay [1] of 70%.
For the molecule `Cc1ccnc(C)c1OCC(=O)N[C@H](Cc1ccccc1)[C@H](O)C[C@@H](Cc1ccccc1)NC(=O)[C@@H](C(C)C)N1CCCNC1=O`, in the assay with MT4, the EC50 came out at 770 nM. For the same molecule, the inhibition in assay [1] turned out to be 75%.
For `Cc1cc(C)c(OCC(=O)N[C@H](Cc2ccccc2)[C@H](O)C[C@@H](Cc2ccccc2)NC(=O)[C@@H](C(C)C)N2CCCNC2=O)c(C)c1` the same measures were 390 nM and 85%.
As to `Cc1cc(C)cc(OCC(=O)N[C@H](Cc2ccccc2)[C@H](O)C[C@@H](Cc2ccccc2)NC(=O)[C@@H](C(C)C)N2CCCNC2=O)c1`, in the assay with MT4, the EC50 is 38000 nM. In assay [1], the inhibition worked out at 37%.
Turning to `Cc1cccc(C)c1OCC(=O)N[C@@H](Cc1ccccc1)[C@@H](O)C[C@H](Cc1ccccc1)NC(=O)[C@H](C(C)C)N1CCCNC1=O` (single isomer, unassigned) [LOPINAVIR], the EC50 in the assay with MT4 was 100 nM.
`Cc1ccccc1OCC(=O)N[C@H](Cc1ccccc1)[C@H](O)C[C@@H](Cc1ccccc1)NC(=O)[C@@H](C(C)C)N1CCCNC1=O`: the EC50 with MT4 came out at 430 nM. This molecule came in with an inhibition in assay [1] of 84%.
For `Cc1cc(N)cc(C)c1OCC(=O)N[C@H](Cc1ccccc1)[C@H](O)C[C@@H](Cc1ccccc1)NC(=O)[C@@H](C(C)C)N1CCCNC1=O` the same measures were 160 nM and 86%.
In the case of `Cc1cccc(C)c1SCC(=O)N[C@H](Cc1ccccc1)[C@H](O)C[C@@H](Cc1ccccc1)NC(=O)[C@@H](C(C)C)N1CCCNC1=O`, the EC50 in the assay on MT4 is 4100 nM. In assay [1], this molecule displayed an inhibition of 55%.
For `COc1cccc(OC)c1OCC(=O)N[C@H](Cc1ccccc1)[C@H](O)C[C@@H](Cc1ccccc1)NC(=O)[C@@H](C(C)C)N1CCCNC1=O` the same measures were 14000 nM and 38%.
As for `Cc1ncnc(C)c1OCC(=O)N[C@H](Cc1ccccc1)[C@H](O)C[C@@H](Cc1ccccc1)NC(=O)[C@@H](C(C)C)N1CCCNC1=O`, the EC50 in the assay on MT4 turned out to be 4200 nM. Also, the inhibition in assay [1] was determined as 79%.
For the molecule `CC(C)[C@H](C(=O)N[C@H](Cc1ccccc1)C[C@@H](O)[C@@H](Cc1ccccc1)NC(=O)COc1ccccc1)N1CCCNC1=O`, the half-maximal effective concentration (EC50) in the assay with MT4 worked out at 1300 nM. This molecule also came in with an inhibition in assay [1] of 67%.
For `CC(C)[C@H](C(=O)N[C@H](Cc1ccccc1)C[C@@H](O)[C@@H](Cc1ccccc1)NC(=O)COc1c(Cl)cccc1Cl)N1CCCNC1=O`, the concentration giving a half-maximal response (EC50) with MT4 is 2800 nM. Further, the inhibition in assay [1] came to 87%.

These data come from ChEMBL document CHEMBL1135285, “Synthesis and structure-activity relationships of a novel series of HIV-1 protease inhibitors encompassing ABT-378 (Lopinavir)” (Bioorg Med Chem Lett, 2002).
